Legend:
MOR = conditions: ref Kandasamy et al., 2021; cited from earlier work
[1] = ref Kandasamy et al., 2021; cited from earlier work
δ-opioid receptor (DOR) = conditions: ref Stanczyk et al., 2019; cited from earlier work
C57BL/6 mice = assay: Naloxone-precipitated opioid withdrawal paradigm; type: in vivo, mouse; conditions: morphine 10 mg/kg s.c. or oxycodone 3.5 mg/kg s.c. twice a day for 5 consecutive days
female C57Bl/6 mice = assay: Respiratory and heart rate measurements; type: in vivo, mouse
[2] = high dose 30 mg/kg s.c., compared with vehicle

COc1ccc(C2SCCN2S(=O)(=O)c2ccc(Cl)cc2)cc1Br (centres unmarked) [BMS-986122]
G protein activation vs β-arrestin recruitment (MOR): enhance G protein activation to a greater extent than β-arrestin recruitment | antinociception and side effects in vivo [1]: produces antinociception with reduced side effects

Cc1ccccc1COc1ccc(C2C3=C(CC(C)(C)CC3=O)OC3=C2C(=O)CC(C)(C)C3)cc1 [BMS-986187]
G protein activation vs β-arrestin recruitment (δ-opioid receptor (DOR)): enhance G protein activation to a greater extent than β-arrestin recruitment

CN1CC[C@]23c4c5ccc(O)c4O[C@H]2[C@@H](O)C=C[C@H]3[C@H]1C5 [morphine]
naloxone-precipitated withdrawal syndrome of the opioid (C57BL/6 mice): mild withdrawal syndrome | breathing rate (respiratory depression) (female C57Bl/6 mice; [2]): caused significant respiratory depression | heart rates (female C57Bl/6 mice; [2]): decrease in heart rates | dose for respiratory depression relative to dose required for analgesia (female C57Bl/6 mice; mice): three to five times

COc1ccc2c3c1O[C@H]1C(=O)CC[C@@]4(O)[C@@H](C2)N(C)CC[C@]314 [oxycodone]
naloxone-precipitated withdrawal syndrome of the opioid (C57BL/6 mice): mild withdrawal syndrome
